We go through six compounds from PMC6369428, “Efflux Inhibitor Bicalutamide Increases Oral Bioavailability of the Poorly Soluble Efflux Substrate Docetaxel in Co-Amorphous Anti-Cancer Combination Therapy” (Molecules, 2019).

As a reminder, the Cmax is the peak of the concentration-time curve. The Tmax is the time from dosing to the highest level. As a reminder, the bioavailability is the share of a dose that reaches the circulation, judged against a reference dose that is usually intravenous. What is called solubility is the concentration that dissolves in the medium under given conditions. Low values mean little dissolved substance, high ones much dissolved substance.

Data set [1] in a line: In vivo pharmacokinetics study in fasted rats. The note with it: for DTX AUC / BIC AUC: mean ± SEM. The arrangement: species or system Sprague Dawley rats. Here is the method:
Healthy female and male Sprague Dawley rats of 7 weeks age weighing 140–240 g (Charles River, Denmark), were used for the experiments. The rats were housed with free access to water and food in groups of two rats per cage under controlled environmental conditions (constant temperature and humidity with a 12 h day-night cycle). All animal experimental work was carried out under the protocol approved by the Danish Animal Experiments Inspectorate (approval no. 2014-15-0201-00031), and all the procedures used were refined to provide maximal comfort and minimal stress to the animals.
All animals were fasted for approximately 12 h prior to administration of the drug formulations and food was provided to rats approximately 6 h after drug administration, although free access to water was allowed during fasting. The nine groups studied, each consisting of 6–8 rats, were assigned randomly and included two groups receiving an intravenous bolus injection of either DTX or BIC corresponding to 1 mg/rat (4–7 mg/kg) dissolved in saline: DMSO (50:50 v/v) with 1% Tween 80, administered in the tail vein. The remaining seven groups were orally administered with DTX or BIC or a combination of these at a fixed dose of 30 mg/kg for DTX and 16 mg/kg for BIC. For DTX, four groups of animals were studied, one group administered with crystalline DTX (crystalline), one group administered with a physical mixture of crystalline DTX and BIC (physical mix), one group administered with amorphous DTX (amorphous) and one group administered with the co-amorphous mixture of DTX and BIC (co-amorphous). For BIC three groups of animals were studied, one group administered with crystalline BIC (crystalline), one groups administered with a physical mixture of crystalline DTX and BIC (physical mix) and one group administered with the co-amorphous mixture of DTX and BIC (co-amorphous). Drug powders were suspended in 0.5 mL PBS and the suspension was immediately administered to the rats using a flexible cannula. Blood samples (150–200 µL) were collected in EDTA coated tubes from puncturing of the tail vein at 0.5, 1, 2, 4, 6 and 24 h after drug administration. The rats were euthanized by cervical dislocation after collection of the final blood sample. Plasma samples were obtained by centrifugation of blood samples at 3600 g (10 min, 4 °C) and transferred into microtubes. The plasma samples were stored at −80 °C until used for further analysis.
The bioanalysis of DTX and BIC in rat plasma was carried out using HPLC coupled with mass spectrometric (MS) detection. Prior to analysis liquid-liquid extraction was performed on the plasma samples (50 μL) by adding 100 μL of ethyl acetate and subsequently vortexing the vial for protein precipitation. The vials were centrifuged and 100 μL supernatant was carefully transferred to HPLC vials with inserts and evaporated using compressed air. The dried content of the vial was reconstituted using 150 μL ACN:H2O (1:1 v/v) and measured by LC-MS/MS.
LC-MS/MS analysis was performed using a 1290 Agilent Infinity Series system (Agilent Technologies, Palo Alto, CA, USA) coupled to an AB Sciex 4500 QTrap MS (Applied Biosystems, Foster City, CA, USA). A HPLC-MS method was developed for each compound. In both cases chromatographic separation was performed using a Phenomenex Kinetex (Torrance, CA, USA) C18 (50 × 2.1 mm, 2.6 μm) column with a Phenomenex C18 SecurityGuard™ Ultra (2.1 mm, 2 µm) guard column and the mobile phases consisted of (A) MilliQ water with 0.1% formic acid and (B) ACN with 0.1% formic acid. The column and autosampler tray were set at 40 °C and 6 °C, respectively, and the flow rate was set at 0.25 mL/min. The injection volume was set at 1 μL and 5 μL for BIC and DTX, respectively. For BIC, the elution gradient started at 20% B at time 0 and increased to […] at time 3.0 min. Hereafter B was held at 99% until 4.3 min before re-equilibrating the column until 5.5 min. The retention time for BIC was 3.12 min. […]

Data set [2] is described as follows: Physical stability on storage, analysed by XRPD. The class given is physicochemical. The conditions noted are these: 1.5 years at 4 °C under dry conditions. Here is the method: XRPD was performed using an X’Pert PANalytical PRO X-ray diffractometer (PANalytical, Almelo, The Netherlands) using Cu Kα radiation (λ = 1.54 Å), and an acceleration voltage and current of 45 kV and 40 mA, respectively. The powder samples were scanned in reflectance mode from 5° to 35° 2ϴ with a scan speed of 0.067° 2ϴ and a step size of 0.026° 2ϴ. Data were collected and analyzed using the software X’Pert Data Collector (PANalytical, Almelo, The Netherlands).
The co-amorphous binary DTX-BIC mixture as well as the pure individual amorphous drugs were stored in a desiccator under dry conditions (silica gel) at 4 °C and analysed by XRPD after 1.5 years of storage.

The nature of data set [3]: Dissolution studies in FaSSIF biorelevant medium. The class given is physicochemical. The note with it: 37 °C. Here is the method:
The concentrations of DTX and BIC were determined using a reversed-phase high-performance liquid chromatography (HPLC) system (Dionex Corporation, CA, USA) equipped with an ASI-100 autosampler, Dionex Ultimate 300 UV-Visible detector and pump. Chromatographic separation was achieved using a XB-C18 Phenomenex Kinetex column of 2.6 μm (2.1 × 50 mm) (Torrance, CA, USA) at 30 °C. The mobile-phase consisted of a mixture of A) 95% water 5% acetonitrile (ACN) and 0.1% trifluoroacetic acid (TFA) and B) 95% ACN 5% water 0.1% TFA, and was used at a flow rate of 0.5 mL/min in isocratic mode (60% A 40% B). Peaks were analysed at 270 nm for BIC and 230 nm for DTX. Linear calibration curves in the range of 0.25–5 μg/mL for both BIC and DTX were obtained in acetonitrile. Elution times were 4.8 min for BIC and 6.4 min for DTX.
For the dissolution studies, powder formulations were initially suspended in PBS in order to avoid powder agglomerates. Immediately after suspension, 100 µL aliquots were added to each well of a 12-well plate containing 2.9 mL dissolution medium/well. The concentrations of the drugs in the dissolution medium were 3 times higher than their respective saturation solubilities. […] The obtained samples were centrifuged at 10,000 g for 10 min and the supernatant was then analysed by HPLC (see above). […]

On the set-up of data set [4]: method as in Valicherla et al. [19]. The conditions noted are these: oral drug delivery strategy for DTX (self-emulsifying drug delivery system), rats, ref Valicherla et al. [19]; cited from earlier work.
Data set [5] can be described thus: Saturation solubility studies in FaSSIF. It counts as physicochemical. The conditions noted are these: crystalline drugs, FaSSIF pH 6.5, after 72 h with excess drug powder. As to the method:
DTX and BIC saturation solubility studies were conducted in FaSSIF. The biorelevant FaSSIF medium was prepared by adding 218 mg bovine bile extract, 58 mg phosphatidylcholine, 232 mg Tris maleate salt and 395 mg sodium chloride to 100 mL of ultra-purified water and stirring overnight at 37 °C. The medium pH was adjusted to 6.5 with 1 M NaOH before use. Approximately 100 mg of the drugs were mixed with 1.5 mL of the media in plastic tubes, and the suspensions were rotated at 20 rpm for 72 h. The solution was separated from undissolved drug by centrifugation, and aliquots from the saturated solution were filtered through 0.45 µm polyvinylidene difluoride (PVDF) filters. The solubility may potentially have been influenced by exposure to temperature since both, centrifugation and filtration, were conducted at room temperature.
The concentrations of DTX and BIC were determined using a reversed-phase high-performance liquid chromatography (HPLC) system (Dionex Corporation, CA, USA) equipped with an ASI-100 autosampler, Dionex Ultimate 300 UV-Visible detector and pump. Chromatographic separation was achieved using a XB-C18 Phenomenex Kinetex column of 2.6 μm (2.1 × 50 mm) (Torrance, CA, USA) at 30 °C. […] Peaks were analysed at 270 nm for BIC and 230 nm for DTX. […]

On the set-up of data set [6]: method as in Zhang et al. [20]. The conditions noted are these: oral drug delivery strategy for DTX (cyclodextrin-based polymeric micelle), mice, ref Zhang et al. [20]; cited from earlier work.
The mark [7] stands for this setting: DTX in plasma, oral suspension, 30 mg/kg DTX, 30 mg/kg.
Where [8] appears, read: oral suspension, 30 mg/kg DTX, Fa = AUCoral/AUCIV × 100, mean ± SEM, 30 mg/kg.
Setting [9] is: intravenous bolus, 1 mg/rat (4–7 mg/kg).

≈ marks a conversion by molar mass, not a printed value. Like-named read-outs stand apart in the source and are kept apart here.

For the compound `CC(=O)O[C@@]12CO[C@@H]1C[C@H](O)[C@@]1(C)C(=O)[C@H](O)C3=C(C)[C@@H](OC(=O)[C@H](O)[C@@H](NC(=O)OC(C)(C)C)c4ccccc4)C[C@@](O)([C@@H](OC(=O)c4ccccc4)[C@H]21)C3(C)C` [Crystalline DTX, Docetaxel], in data set [1] (setting [7]), the “DTX Tmax” value is listed as 4 h and the “DTX AUC” value is given as 185 ± 29 ng/mL × 24h. In addition, the “DTX Tmax” value in data set [1] (DTX in plasma, oral suspension, 30 mg/kg DTX, listed as crystalline DTX, 30 mg/kg) is “around 1 h”. For the same compound, in data set [1] (setting [8]), the “DTX Fa (absolute oral bioavailability)” value was 0.20 ± 0.03%. Further, the Cmax in data set [1] (both sexes, Sprague Dawley, rat, plasma, po, 30 mg/kg, DTX in plasma, oral suspension, 30 mg/kg DTX, read-out: DTX Cmax) worked out at 15 ng/mL.

Take `CC(=O)O[C@@]12CO[C@@H]1C[C@H](O)[C@@]1(C)C(=O)[C@H](O)C3=C(C)[C@@H](OC(=O)[C@H](O)[C@@H](NC(=O)OC(C)(C)C)c4ccccc4)C[C@@](O)([C@@H](OC(=O)c4ccccc4)[C@H]21)C3(C)C` [Amorphous DTX, Docetaxel]: the “physical stability (solid state by XRPD) after storage” value in data set [2] was “remained amorphous”. Besides, the DTX supersaturation behaviour entry in data set [3] (DTX in FaSSIF, up to 240 min) is on record as “does not supersaturate”. For the same compound, in data set [1] (setting [7]), the “DTX Cmax” value was 19 ng/mL, the “DTX Tmax” value was found to be 6 h and the “DTX AUC” value was found to be 518 ± 113 ng/mL × 24h. In data set [1] (setting [8]), the “DTX Fa (absolute oral bioavailability)” value worked out at 0.56 ± 0.12%.

As to `CC(O)(CS(=O)(=O)c1ccc(F)cc1)C(=O)Nc1ccc(C#N)c(C(F)(F)F)c1` (centres unmarked) [Crystalline BIC, bicalutamide], in data set [1] (BIC in plasma, oral suspension, 16 mg/kg BIC), the “BIC AUC” value is listed as 43.06 ± 4.79 µg/mL × 24h. The Cmax in data set [1] (both sexes, Sprague Dawley, rat, plasma, po, 16 mg/kg, BIC in plasma, oral suspension, 16 mg/kg BIC, read-out: BIC Cmax) is 1660 ng/mL. For the same compound, the Tmax in data set [1] (both sexes, Sprague Dawley, rat, plasma, po, 16 mg/kg, BIC in plasma, oral suspension, 16 mg/kg BIC, read-out: BIC Tmax) was 6 h. In data set [1] (both sexes, Sprague Dawley, rat, plasma, po, 16 mg/kg, BIC, oral suspension, 16 mg/kg BIC, Fa = AUCoral/AUCIV × 100, mean ± SEM, read-out: BIC Fa (absolute oral bioavailability)), the bioavailability turned out to be 14 ± 1%.

Regarding `CC(=O)O[C@@]12CO[C@@H]1C[C@H](O)[C@@]1(C)C(=O)[C@H](O)C3=C(C)[C@@H](OC(=O)[C@H](O)[C@@H](NC(=O)OC(C)(C)C)c4ccccc4)C[C@@](O)([C@@H](OC(=O)c4ccccc4)[C@H]21)C3(C)C` [DTX, Docetaxel], the Cmax is 125 ng/mL in data set [4]; 292 ng/mL in data set [6]; 7210 ng/mL in data set [1] (both sexes, Sprague Dawley, rat, plasma, iv, 1 mg, intravenous bolus, 1 mg/rat (4–7 mg/kg), read-out: DTX Cmax). The relative bioavailability increase in data set [4] is on record as 3.2 fold; in data set [6] it was 4.6 fold. In data set [5], the solubility at 72 h was 7.5 ± 1.2 µg/mL (≈ 9.28 µM). The Tmax in data set [1] (both sexes, Sprague Dawley, plasma, intravenous bolus, 1 mg/rat (4–7 mg/kg), read-out: DTX Tmax) stood at 0.5 h. The “DTX AUC” value in data set [1] (setting [9]) was 93,196 ± 12,626 ng/mL × 24h.

In turn, `CC(O)(CS(=O)(=O)c1ccc(F)cc1)C(=O)Nc1ccc(C#N)c(C(F)(F)F)c1` (centres unmarked) [BIC, bicalutamide] gave a solubility at 72 h in data set [5] of 3.05 ± 0.9 µg/mL (≈ 7.09 µM). Further, in data set [1] (both sexes, Sprague Dawley, rat, plasma, iv, 1 mg, intravenous bolus, 1 mg/rat (4–7 mg/kg), read-out: BIC Cmax), the Cmax was 11300 ng/mL. Further, in data set [1] (both sexes, Sprague Dawley, rat, plasma, iv, 1 mg, intravenous bolus, 1 mg/rat (4–7 mg/kg), read-out: BIC Tmax), the Tmax was 0.5 h. In addition, in data set [1] (setting [9]), the BIC AUC is 317 µg/mL × 24h.

Take `CC(O)(CS(=O)(=O)c1ccc(F)cc1)C(=O)Nc1ccc(C#N)c(C(F)(F)F)c1` (centres unmarked) [Amorphous BIC, bicalutamide]: the “physical stability (solid state by XRPD) after storage” value in data set [2] was “recrystallized”. In addition, the “time after which the saturation solubility of BIC is reached” value in data set [3] (BIC in FaSSIF) is reported as 120 min.
